# Measurements published in ChEMBL document CHEMBL3638721, “C-linked hydroxamic acid derivatives useful as antibacterial agents” (2014).
# Molecular target: T1, UDP-3-O-acyl-N-acetylglucosamine deacetylase (Pseudomonas aeruginosa (strain ATCC 15692 / PAO1 / 1C / PRS 101 / LMG12228), UniProt P47205)
# T1 sequence (P47205 whole entry): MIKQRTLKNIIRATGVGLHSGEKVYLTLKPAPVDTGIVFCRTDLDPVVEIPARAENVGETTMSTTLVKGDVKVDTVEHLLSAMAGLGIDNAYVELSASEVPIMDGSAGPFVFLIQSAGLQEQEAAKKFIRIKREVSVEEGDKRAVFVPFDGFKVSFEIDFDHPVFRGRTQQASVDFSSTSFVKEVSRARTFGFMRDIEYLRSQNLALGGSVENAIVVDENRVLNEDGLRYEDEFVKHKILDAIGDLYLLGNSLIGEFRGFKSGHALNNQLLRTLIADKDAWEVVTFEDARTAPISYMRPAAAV
# Assay: At the end of 1 hour, 5 ul of 1N HCl was added to stop the enzyme reaction; the plates were centrifuged, and then processed with the BioTrove Rapidfire HTMS Mass Spectrometry System.
row,SMILES,IC50 [nM]
1,CC(CCc1ccc(OC2CCCCC2)cc1)(C(=O)NO)S(C)(=O)=O (configuration not stated),0.753
2,CCC(CC)COc1ccc(CCC(C)(C(=O)NO)S(C)(=O)=O)cc1 (configuration not stated),1.29
3,CCC(c1ccccc1)c1noc(COc2ccc(CCC(C)(C(=O)NO)S(C)(=O)=O)cc2)n1 (configuration not stated),20.5
4,CC(CCc1ccc(OCc2nc(-c3cccc(F)c3)no2)cc1)(C(=O)NO)S(C)(=O)=O (configuration not stated),3.81
5,CC(CCc1ccc(OCCCOCc2ccccc2)cc1)(C(=O)NO)S(C)(=O)=O (configuration not stated),21.1
6,Cc1ncccc1COc1ccc(CCC(C)(C(=O)NO)S(C)(=O)=O)cc1 (configuration not stated),5.59
7,CC(CCc1ccc(OCC2CC2)cc1)(C(=O)NO)S(C)(=O)=O (configuration not stated),10.5
8,CC(CCc1ccc(OCCOc2ccccc2)cc1)(C(=O)NO)S(C)(=O)=O (configuration not stated),1.52
9,CC(CCc1ccc(OCc2ccc(F)cc2C(F)(F)F)cc1)(C(=O)NO)S(C)(=O)=O (configuration not stated),2.36
10,CC(CCc1ccc(OCc2cccc(Cl)c2)cc1)(C(=O)NO)S(C)(=O)=O (configuration not stated),1.32
11,CCCCCCOc1ccc(CCC(C)(C(=O)NO)S(C)(=O)=O)cc1 (configuration not stated),6.31
12,CC(CCc1ccc(OCc2nc(-c3cccc(F)c3F)no2)cc1)(C(=O)NO)S(C)(=O)=O (configuration not stated),5.31
13,Cc1ccc(C)c(COc2ccc(CCC(C)(C(=O)NO)S(C)(=O)=O)cc2)c1 (configuration not stated),4.25
14,CC(CCc1ccc(OCc2nc(-c3cc(F)cc(F)c3)no2)cc1)(C(=O)NO)S(C)(=O)=O (configuration not stated),5.81
15,CC(CCc1ccc(OCc2nc(Cc3cc(F)ccc3F)no2)cc1)(C(=O)NO)S(C)(=O)=O (configuration not stated),0.714
16,Cc1cc(C)cc(COc2ccc(CCC(C)(C(=O)NO)S(C)(=O)=O)cc2)c1 (configuration not stated),4.5
17,COc1ccc(F)c(-c2noc(COc3ccc(CCC(C)(C(=O)NO)S(C)(=O)=O)cc3)n2)c1 (configuration not stated),6.39
18,Cc1cccc(COc2ccc(CCC(C)(C(=O)NO)S(C)(=O)=O)cc2)c1F (configuration not stated),0.525
19,Cc1ccc(COc2ccc(CCC(C)(C(=O)NO)S(C)(=O)=O)cc2)cc1 (configuration not stated),1.02

row,SMILES,IC50 [nM]
1,CC(CCc1ccc(OCC2CCC2)cc1)(C(=O)NO)S(C)(=O)=O (configuration not stated),3.28
2,CC(C)CCCOc1ccc(CCC(C)(C(=O)NO)S(C)(=O)=O)cc1 (configuration not stated),3.22
3,CC(CCc1ccc(OCc2cccc(F)c2)cc1)(C(=O)NO)S(C)(=O)=O (configuration not stated),0.834
4,Cc1ccc(-c2noc(COc3ccc(CCC(C)(C(=O)NO)S(C)(=O)=O)cc3)n2)cc1 (configuration not stated),3.48
5,Cc1ccc(COc2ccc(CCC(C)(C(=O)NO)S(C)(=O)=O)cc2)cn1 (configuration not stated),5.96
6,CC(CCc1ccc(OCCc2ccccc2)cc1)(C(=O)NO)S(C)(=O)=O (configuration not stated),4.03
7,CC(CCc1ccc(OCc2nc(C3CCCC3)no2)cc1)(C(=O)NO)S(C)(=O)=O (configuration not stated),7.2
8,CC(CCc1ccc(OCc2cccc(OC(F)(F)F)c2)cc1)(C(=O)NO)S(C)(=O)=O (configuration not stated),2.71
9,CC(CCc1ccc(OCc2cc(C#N)ccc2F)cc1)(C(=O)NO)S(C)(=O)=O (configuration not stated),1.36
10,CC(CCc1ccc(OCc2nc3ccccc3s2)cc1)(C(=O)NO)S(C)(=O)=O (configuration not stated),0.651
11,CC(CCc1ccc(OCc2ccc3ccccc3n2)cc1)(C(=O)NO)S(C)(=O)=O (configuration not stated),13.9
12,CC(CCc1ccc(OCCc2ccncc2)cc1)(C(=O)NO)S(C)(=O)=O (configuration not stated),13.7
13,CC(CCc1ccc(OCCC2CCCC2)cc1)(C(=O)NO)S(C)(=O)=O (configuration not stated),1.27
14,CC(CCc1ccc(OCCCC2CCCC2)cc1)(C(=O)NO)S(C)(=O)=O (configuration not stated),2.55
15,CC(CCc1ccc(OCCC2CCCCC2)cc1)(C(=O)NO)S(C)(=O)=O (configuration not stated),2.79
16,CC(CCc1ccc(OCCCC2CCCCC2)cc1)(C(=O)NO)S(C)(=O)=O (configuration not stated),4.56
17,CC(CCc1ccc(OCCCc2ccccc2)cc1)(C(=O)NO)S(C)(=O)=O (configuration not stated),10.2
18,CC(CCc1ccc(OCCC2CC2)cc1)(C(=O)NO)S(C)(=O)=O (racemic),1.36
